{"source": "patent US20130143968A1", "about": "“Methods and compositions for the treatment of diabetes and related symtoms” (Emmaus Medical, Inc., priority 2011, published 2013)", "key": {"[1]": {"assay": "HA1C lowering in a person ingesting L-glutamine", "format": "in vivo", "settings": "one person, baseline 6.9%; 30 g per day as an aqueous solution, ingested; after three months", "procedure": "The person ingested 30 g of L-glutamine per day as an aqueous solution. After three months of L-glutamine administration, the person's Hb A1C level was measured at 6.1%."}, "[2]": {"assay": "Triglyceride lowering in a person ingesting L-glutamine", "format": "in vivo", "settings": "one person, baseline 500 mg/dL; 30 g per day as an aqueous solution, ingested; after three months", "procedure": "The person ingested 30 g of L-glutamine per day as an aqueous solution. After three months of L-glutamine administration, the person's triglyceride blood level was measured at 150 mg/dL."}}, "data": [{"smiles": "NC(=O)CC[C@H](N)C(=O)O", "note": "[L-glutamine]", "values": [{"measurement": "glycolated hemoglobin level (Hb A1C level)", "setting": "[1]", "value": 6.1, "unit": "%"}, {"measurement": "triglyceride blood level", "setting": "[2]", "value": 150, "unit": "mg/dL"}]}]}
